Results: US3987177A, “Vincaminic acid esters” (Synthelabo, priority 1974, dated 1976)
Counter-ions that a name gives are not always drawn. Like-named read-outs stand apart in the source and are kept apart here.

Columns and labels:
Mice of the CD1 strain = assay: Anoxia test on mice under low (oxygen) pressure conditions; type: in vivo; settings: for Protective activity in the anoxia test under reduced pressure conditions, MAD (mean active dose, increases the survival time by 100%): CD1 mice, intraperitoneally 10 minutes before the test, 190 mm of mercury (5.25% oxygen), expressed as the base; for anti-anoxia activity compared to vincamine: mice, in words
Experimental: Mice of the CD1 strain are kept in an atmosphere depleted in oxygen, by producing a partial vacuum (190 mm of mercury, corresponding to 5.25% of oxygen).
The survival time of the animals is noted. This time is increased by agents capable of assisting tissue oxygenation and in particular cerebal oxygenation. The compounds studied are administered in several doses intraperitoneally 10 minutes before the test. The percentage increases in the survival time relative to the values obtained with comparison animals are calculated. The mean active dose (MAD), the dose which increases the survival time by 100%, is determined graphically.

mice of the strain CD1 = assay: Acute toxicity (50% lethal dose) in mice; type: in vivo; settings: for toxicity compared to vincamine, lower by a factor, intraperitoneal: intraperitoneally; for toxicity compared to vincamine, lower by a factor, intraperitoneal / toxicity compared to vincamine, lower by a factor, oral: factor vs vincamine; for toxicity compared to vincamine, lower by a factor, oral: orally
Water solubility = type: physicochemical; settings: methylsulphonic acid salt
[1] = Acute toxicity (50% lethal dose) in mice; type: in vivo; settings: mouse, in vivo
femoral artery of dogs = settings: in words; no test or source given; cited from earlier work
[2] = ip, CD1 mice, intraperitoneal, mortality recorded for 7 days, read-out: Acute toxicity LD50, intraperitoneal
[3] = mice, oral, read-out: Acute toxicity LD50, oral

Compound	Protective activity in the anoxia test under reduced pressure conditions, MAD (mean active dose, increases the survival time by 100%) (Mice of the CD1 strain)	anti-anoxia activity compared to vincamine (Mice of the CD1 strain)	Acute toxicity LD50, intraperitoneal (mice of the strain CD1; CD1 mice, intraperitoneal, mortality recorded for 7 days)	toxicity compared to vincamine, lower by a factor, intraperitoneal (mice of the strain CD1; mice)	Acute toxicity LD50, oral (mice of the strain CD1; mice, oral, 10080 min)	toxicity compared to vincamine, lower by a factor, oral (mice of the strain CD1; mice)	water solubility (in words) (Water solubility)	LD50 at 168 h [1, 2]	LD50 at 168 h [1, 3]	vasodilating activity compared to papaverine (known compounds) (femoral artery of dogs)
CC[C@@]12C=C(C(=O)OC3CC(C)CC(C)(C)C3)n3c4c(c5ccccc53)CCN(CCC1)[C@H]42.Cl (some centres unmarked) [Example 1, 3,3,5-Trimethylcyclohexyl apovincaminate]	5.5 mg/kg	markedly greater than that of vincamine	430 mg/kg	2	2100 mg/kg	about 5				
CCC12C=C(C(=O)OC3CC(C)CC(C)(C)C3)n3c4c(c5ccccc53)CCN(CCC1)C42 (centres unmarked) [Example 3, methylsulphonic acid salt of 3,3,5-trimethylcyclohexyl apovincaminate]	5 mg/kg	markedly greater than that of vincamine		2		about 5	water-soluble	440 mg/kg	2800 mg/kg	
CC[C@]12CCCN3CCc4c(n(c5ccccc45)[C@@](O)(C(=O)OC)C1)[C@@H]32 [Vincamine, reference compound]	8 mg/kg							215 mg/kg	460 mg/kg	at most equal to that of papaverine
